The values that follow come from article PMC13239830, “Antimicrobial Peptides Induce Cell Death in Marginal Zone Lymphoma Models Resistant to Targeted Therapies” (EJHaem, 2026).

“Also recorded” adds a separate entry of the source. Peptide text beside a SMILES is read from it.

For one data set, the system named is Karpas1718 cells. Format: cell-based, human. Conditions: 72 h. On the procedure:
(§1) The established human cell lines VL51 1 and Karpas1718 2, derived from bona fide marginal zone lymphomas (MZL), and their derivatives with secondary resistance obtained by long exposure to the BTK inhibitor ibrutinib, the PI3Kδ inhibitor idelalisib or the PI3Kα/δ inhibitor copanlisib (three from VL51 3-5, and one from Karpas1718 6). Cell lines were cultured in RPMI supplemented with fetal bovine serum (FBS) (10%) and penicillin-streptomycin-neomycin (≈5,000 units penicillin, 5 mg streptomycin, and 10 mg neomycin/mL; Sigma-Aldrich, Darmstadt, Germany). Cell line identities were confirmed by periodic short tandem repeat (STR) DNA fingerprinting using the Promega GenePrint 10 System kit (B9510).
(§2) Cells were regularly tested for mycoplasma negativity using the MycoAlert Mycoplasma Detection Kit (Lonza, Visp, Switzerland).
(§3) […] Purity (>95%) was confirmed by reverse-phase high-performance liquid chromatography (RP-HPLC) while molecular masses were verified by mass spectrometry. Peptides were dissolved in nuclease-free water, and 2 mM stock solutions were prepared 7.
(§4) Antarctic peptides were synthesized by Caslo Aps (Caslo Aps Kongens, Lyngby, Denmark) with 98% purity. Purity was confirmed by reverse-phase high-performance liquid chromatography (RP-HPLC), and molecular masses were verified by mass spectrometry. As previously reported, the peptide stock concentration in nuclease-free water (1 mM) was determined spectrophotometrically.
(§5) In vitro cytotoxic activity
(§6) Cells were manually seeded into 96-well plates (VL51, 10’000 cells per well; SSK41, 20’000 cells per well; Karpas1718, 30’000 cells per well). Treatments were applied manually, and cell viability was assessed after 72 hours using 3-(4,5-dimethylthiazol-2-yl)-2,5-diphenyltetrazolium bromide (MTT).
(§7) After a 4-hour incubation, the reaction was terminated by adding sodium dodecyl sulfate (SDS) lysis buffer. Plates were analyzed with Cytation3, and IC50s were calculated using the 4-parameter logistic model (R environment or GraphPad Prism, Version 10.6.1). Antarctic peptides were tested at 40μM, with 1:2 dilutions down to 625 nM. Temporins were tested at 100μM, with 1:5 dilutions down to 32 nM. […]

Data set [1] relates to Karpas1718-Idel (idelalisib-resistant Karpas1718) cells. Type of data set: cell-based, human. The conditions noted are these: 72 h. The method, then:
as §1, §2, §3, §4, §5, §6, §7

Another data set relates to VL51 cells. Type of data set: cell-based, human. The conditions noted are these: 72 h. On the procedure:
as §1, §2, §3, §4, §5, §6, §7

Data set [2] relates to VL51-Copa (copanlisib-resistant VL51) cells. Type of data set: cell-based, human. The conditions noted are these: 72 h. The method, then: as §1, §2, §3, §4, §5, §6, §7
The subject of data set [3] is VL51-Ibru (ibrutinib-resistant VL51) cells. Format: cell-based, human. Conditions: 72 h. The method, then: as §1, §2, §3, §4, §5, §6, §7
For data set [4], the system named is VL51-Idel (idelalisib-resistant VL51) cells. Type of data set: cell-based, human. Conditions: 72 h. The method, then: as §1, §2, §3, §4, §5, §6, §7
Data set [5] has as its system MZL cell lines (VL51, Karpas1718) and resistant derivatives. The experiment in a line: In vitro cytotoxic activity (MTT, 72 h), summary over the MZL cell line panel. Format: cell-based. The conditions noted are these: derivatives resistant to BTK, PI3Kδ or PI3Kα/δ inhibitors. The method, then: For in vitro testing, we used two human MZL cell lines, VL51 and Karpas1718, along with derivative clones rendered resistant by prolonged exposure to the BTK inhibitor ibrutinib, the PI3Kδ inhibitor idelalisib, or the PI3Kα/δ inhibitor copanlisib (Table S1; methods described in the Supporting Information). […] The calculated IC50 values ranged from 5 to 10 µM (Table S2). […] These findings were validated by treating lymphoma cells and peripheral blood mononuclear cells (PBMCs) in parallel. […] While acquired resistance to BTK or PI3K inhibitors often involves secondary mutations in the drug‐binding site, activation of alternative kinases, or evasion of apoptosis through upregulation of anti‐apoptotic proteins, these adaptations are unlikely to protect tumor cells from AMP‐mediated membrane disruption. […]
as §1, §2, §3, §4, §5, §6, §7

For another data set, the system named is Karpas1718-Idel cells. Kind of data set: Cell death and membrane integrity by Annexin V/PI staining. Type of data set: cell-based, human. Conditions: 10 µM, 1 and 2 h, flow cytometry. On the procedure:
as §1, §2, §3
Antarctic peptides were synthesized by Caslo Aps (Caslo Aps Kongens, Lyngby, Denmark) with 98% purity. Purity was confirmed by reverse-phase high-performance liquid chromatography (RP-HPLC), and molecular masses were verified by mass spectrometry. As previously reported, the peptide stock concentration in nuclease-free water (1 mM) was determined spectrophotometrically. […]
Subsequently, cells were stained with Annexin V and propidium iodide (PI) (Annexin V FITC Apoptosis Detection Kit, BMS500FI-300, Life Technologies) following the manufacturer ’s instructions and analyzed through flow cytometry and immunofluorescence (Leica Thunder microscope).
PBMCs. Flow cytometric (A) and immunofluorescence (B) analyses of Annexin V/PI staining in Karpas1718-Idel cells and PBMCs after 1- and 2-hour treatments with W-trematocine or Temporin L at 10 µM. (B) Representative images (100x magnification) show brightfield, Annexin V (green), and PI […]

In the next data set the test system is PBMCs. The description is as above. Format: cell-based. The conditions noted are these: 10 µM; 1 and 2 h; PBMCs treated in parallel; flow cytometry. On the procedure:
as §1
Cells were regularly tested for mycoplasma negativity using the MycoAlert Mycoplasma Detection Kit (Lonza, Visp, Switzerland). […]
Antarctic peptides were synthesized by Caslo Aps (Caslo Aps Kongens, Lyngby, Denmark) with 98% purity. […] As previously reported, the peptide stock concentration in nuclease-free water (1 mM) was determined spectrophotometrically. […]
Subsequently, cells were stained with Annexin V and propidium iodide (PI) (Annexin V FITC Apoptosis Detection Kit, BMS500FI-300, Life Technologies) following the manufacturer ’s instructions and analyzed through flow cytometry and immunofluorescence (Leica Thunder microscope). […]
A general note: Flow cytometry measures light scatter and fluorescence of single cells or particles in a stream.

The test system of data set [6] is primary human fibroblasts. The conditions noted are these: up to 25 µM, 24 h, ref [9]; cited from earlier work.
For the next data set, the system named is rabbit erythrocytes. The conditions noted are these: ref [9]; cited from earlier work.
The next data set concerns nonmalignant cells. Conditions: prior studies; ref prior studies; cited from earlier work. An excerpt: ABSTRACT Introduction Marginal zone lymphoma (MZL) is an indolent yet incurable B‐cell malignancy in which targeted agents such as BTK and PI3K inhibitors frequently fail due to resistance or toxicity. […] Methods Peptides were synthesized and tested for their anti‐proliferative activity in MZL cell lines. Results We evaluated the antitumor activity of seven natural AMPs, including Antarctic fish–derived trem ...

`CC[C@H](C)[C@H](NC(=O)CNC(=O)[C@H](CCCNC(=N)N)NC(=O)[C@H](CC(C)C)NC(=O)[C@H](CC(C)C)NC(=O)[C@H](Cc1c[nH]cn1)NC(=O)CNC(=O)[C@H](Cc1ccccc1)NC(=O)[C@@H](N)Cc1c[nH]c2ccccc12)C(=O)N[C@H](C(=O)N[C@@H](CO)C(=O)N[C@H](C(=O)NCC(=O)N[C@@H](CCCCN)C(=O)N[C@@H](Cc1c[nH]cn1)C(=O)N[C@H](C(=O)N[C@@H](Cc1c[nH]cn1)C(=O)NCC(=O)N[C@@H](CC(C)C)C(=O)N[C@H](C(=O)N[C@H](C(=O)NCC(=O)O)[C@@H](C)O)[C@@H](C)CC)[C@@H](C)CC)C(C)C)C(C)C` [W-Trematocine] (H-WFGHLLRGIVSVGKHIHGLITG-OH; N-terminus and C-terminus assumed): the IC50 in the data set with Karpas1718 cells came to 5 µM; in data set [1] it was 6.5 µM; with VL51 cells, 5.5 µM; in data set [2], 7.1 µM; in data set [3], 6.5 µM; in data set [4], 7.6 µM. Moreover, the “activity in resistant models” value in data set [5] was “maintaining full activity in all resistant models”. The “anti-lymphoma activity (Annexin V/PI staining)” value with Karpas1718-Idel cells is recorded as “active in lymphoma cells; also recorded: potent anti‐lymphoma activity”. In addition, the “sensitivity of PBMCs (Annexin V/PI staining)” value in the data set with PBMCs was “markedly less sensitive”. Moreover, the cytotoxicity entry in data set [6] is “negligible cytotoxicity”. Further, the hemolysis entry in the data set with rabbit erythrocytes is “minimal hemolysis”. In addition, the “toxicity toward nonmalignant cells” value in the data set with nonmalignant cells is “minimal toxicity”.

As usually defined, the IC50 is the concentration at which inhibition is half-maximal. Low readings indicate inhibition by little substance, high ones a need for much substance.
